Source: US20050009151A1, “Methods for the stereospecific and enantiomeric enrichment of beta-amino acids” (Pharmacia Corporation, priority 2003, published 2005)

Key:
Assay type in all cases: biochemical
[1] = tested on: Variovorax paradoxus β-aminotransferase; assay: Resolution of substrates with Variovorax paradoxus β-aminotransferase
Description: […] Reactions were typically run at 1 ml scale with gentle shaking at 26° C.
(§1) 10 ul of 2N HCl was added to a plastic screw capped vial and 90ul of sample was then added. The pH of the mixture confirmed to be below 4 and the mixture was centrifuged in a microcentrifuge at maximum speed for about 2 minutes to remove precipitated materials.
(§2) Samples were derivatized using Marfey's reagent, N•-(2,4-dinitro-5-fluorophenyl)-L-alaninamide. A stock solution of 10 mg/mL in acetone of this reagent was prepared. Either 20 or 40 ul of bioconversion sample was added to 20 ul 1.3 M KHCO3. To this was added 80 ul of the stock reagent solution, the vial sealed tightly, and heated at 70° C. for 10 minutes. As needed, after cooling to room temperature, the heated samples were centrifuged to remove solids. The supernatants were analyzed using an Eclipse XDB-C8 column, 4.6×150 mm, eluting with methanol gradient in water, from 50% methanol to 100% methanol. Both solvents were acidified with 0.1% trifluoroacetic acid.
(§3) For resolution experiments, the area of the peak consumed (converted to keto acid) was compared to the area remaining of the unconsumed peak, on the assumption that none was converted.

[2] = tested on: Variovorax paradoxus β-aminotransferase; assay: Synthesis of β-amino acid from β-keto acid with Variovorax paradoxus β-aminotransferase; conditions: cell lysate, 19 hours
Description: (§4) A buffer consisting of 0.3M Tricine, 15 mM MgSO4, enough pyridoxal phosphate to impart a pale yellow color and 0.3M sodium glutamate (for deamination reactions) or 0.3 M 2-ketoglutarate monopotassium salt (for synthesis reactions) was prepared.
(§5) One part buffer was combined with two parts lysate and this mixture was then added to pre-weighed substrate to give a concentration of 1 mg/ml substrate. Reactions were typically run at 1 ml scale with gentle shaking at 26° C.
as §1, §2
For synthesis experiments, in which β-keto acid was converted to β-amino acid, the area of the peak(s) was compared to a standard curve derived for β-phenylalanine.

[3] = tested on: β-aminotransferase enzyme from Variovorax paradoxus; assay: D-β-aminotransferase amino donor specificity; conditions: for substrate for the enzyme (amino donor): 2 mg/ml amino donor, 10 mg/ml α-ketoglutarate, 1 hour, 37° C.
Description: The same preparation of semi-purified β-aminotransferase enzyme from Variovorax paradoxus was then assayed using a-ketoglutarate as the keto acceptor, in an assay consisting of 100 mM potassium phosphate, 10 mg/ml α-ketoglutarate, 2 mg/ml amino donor and 0.1 mM pyridoxal phosphate, at pH 8.0. The reactions were run at 37° C. with mild stirring for 1 hour. At 1 hour reaction time, 0.1 ml samples were withdrawn, acidified with addition of 0.1 ml 0.1N HCl, and centrifuged. The supernatant solution was collected into HPLC sample vials. Conversion of an amino acid to the corresponding ketone was quantified using reverse phase HPLC. The following amino acids (as an amino donor) were screened for activity: α-(D)-phenylalanine, α-(L)-phenylalanine, β-(D)-phenylalanine, β-(L)-phenylalanine, (D)-3-amino-5-phenylpentanoic acid, and (L)-3-amino-5-phenylpentantoic acid.

[4] = tested on: β-aminotransferase from Alcaligenes eutrophus; assay: Resolution of substrates with cell lysate from Alcaligenes eutrophus
Description: as §4, §5, §1, §2, §3

[5] = tested on: β-aminotransferase enzyme from Variovorax paradoxus (CC-KGbPHe-I14); assay: D-β-aminotransferase keto acid substrate specificity; conditions: rate of conversion of D-β-phenylalanine to 3-keto-3-phenylpropionic acid as percent of the rate using α-ketoglutarate; 10 mg/ml α-keto acceptor, 1 hour, 37° C.
Description: Semi-purified β-aminotransferase enzyme from Variovorax paradoxus (CC-KGbPHe-I14) was assayed using D-β-phenylalanine as the amino donor, in an assay consisting of 100 mM potassium phosphate, 2 mg/ml DL-β-phenylalanine, 10 mg/ml α-keto acceptor and 0.1 mM pyridoxal phosphate, at pH 8.0. The reactions were run at 37° C. with mild stirring for 1 hour. At 1 hour reaction time, 0.1 ml samples were withdrawn, acidified with addition of 0.1 ml 0.1N HCl, and centrifuged. The supernatant solution was collected into HPLC sample vials. Conversion of DL-β-phenylalanine to 3-keto-3-phenylpropionate was quantified using reverse phase HPLC. The following keto acids were screened for activity: α-ketoglutaric acid, oxaloacetic acid, pyruvic acid, 3-oxoadipic acid, 2-oxoadipic acid, 1,3-acetonedicarboxylic acid, and 4-ketopimelic acid. The relative rates of conversion of D-β-phenylalanine to 3-keto-3-phenylpropionic acid using the various keto acceptors is reported as percent of the rate using α-ketoglutarate, the experimentally determined preferred acceptor.

CC(C)C(N)CC(=O)O (centres unmarked) [3-amino-4-methylpentanoic acid]
Peak consumption (later eluting peak) ([1]; cell lysate, 48 hours): 65% | Peak consumption (later eluting peak) ([1]; cell lysate, 48 hours, listed as 3-amino-4-methylpentanoic): 65%

NC(CC(=O)O)C1CCCCC1 (centres unmarked) [3-amino-3-cyclohexylpropanoic acid]
Peak consumption (later eluting peak) ([1]; cell lysate, 2 hours): >99%

CCCC(=O)CC(=O)O [3-Oxohexanoic acid]
product stereoisomer peak observed [2]: only later eluting peak was observed | 3-aminohexanoic acid formed, using beta-phenylalanine as standard ([2]; approximately 50 mM substrate, approximately 60 mM glutamic acid): approximately 1 mg/mL

N[C@H](Cc1ccccc1)C(=O)O [α-(D)-phenylalanine]
substrate for the enzyme (amino donor) [3]: Only β-(D)-phenylalanine and (D)-3-amino-5-phenylpenantoic acid were substrates

N[C@H](CC(=O)O)c1ccc([N+](=O)[O-])cc1 [p-nitro-β-phenylalanine]
Peak consumption (later eluting peak) ([1]; sodium sulfate purified beta-aminotransferase, 30 minutes): 98% | Peak consumption (later eluting peak) ([1]; sodium sulfate purified beta-aminotransferase, 30 minutes, listed as p-nitro-α-phenylalanine): approximately 98% | later eluting peak remaining ([1]; sodium sulfate purified beta-aminotransferase, after 1 hour): not detected | change in the concentration of the early eluting stereoisomer ([1]; sodium sulfate purified beta-aminotransferase, after 18 hours): no detectable change

NC(CC(=O)O)c1ccsc1 (centres unmarked) [3-amino-3-(3-thienyl)propanoic acid]
Peak consumption (earlier eluting peak) ([4]; 21 hours): 82% | Peak consumption (earlier eluting peak) ([4]; 22 hours): 82%

O=C(O)CC(=O)C(=O)O [Oxaloacetic Acid]
Relative Activity [5]: 54%

N[C@H](CC(=O)O)c1cccc([N+](=O)[O-])c1 [m-nitro-β-phenylalanine]
Peak consumption (later eluting peak) ([1]; cell lysate, 23 hours): 95%

N[C@@H](CC(=O)O)c1ccccc1 [β-(D)-phenylalanine, D- or (S)-3-amino-3-phenylpropionic acid]
substrate for the enzyme (amino donor) [3]: substrates for the enzyme | preference of the enzyme for the enantiomer ([3]; enzyme preferring α-ketoglutarate as amino acceptor, no activity on the L-enantiomer): 100%

N[C@H](CC(=O)O)c1ccccc1 (racemic) [β-phenylalanine]
Peak consumption (later eluting peak) ([1]; cell lysate, 5 hours): >99% | Peak consumption (later eluting peak) ([1]; cell lysate, 23 hours): 82% | change in the concentration of the later eluting stereoisomer ([4]; after one day): no detectable change | earlier eluting peak remaining ([4]; after one day): not detectable

N[C@H](CC(=O)O)c1ccc(F)cc1 [p-fluoro-β-phenylalanine]
Peak consumption (later eluting peak) ([1]; cell lysate, 23 hours): 82%

NC(CC(=O)O)c1cccnc1 (centres unmarked) [3-amino-3-(3-pyridyl)propanoic acid]
Peak consumption (later eluting peak) ([1]; cell lysate, 5 hours): >95%

NC(CC(=O)O)c1ccc(Oc2ccccc2)cc1 (centres unmarked) [3-amino-3-(4-phenoxyphenyl)propanoic acid]
Peak consumption (later eluting peak) ([1]; cell lysate, 5 hours): 58%

NC(CC(=O)O)c1cc2ccccc2o1 (centres unmarked) [3-amino-3-(2-benzofuryl))propanoic acid]
Peak consumption (later eluting peak) ([1]; cell lysate, 5 hours): 98%

N[C@@H](CCc1ccccc1)CC(=O)O [(L)-3-amino-5-phenylpentantoic acid, L- or (S)-3-amino-5-phenyl-pentanoic acid]
substrate for the enzyme (amino donor) [3]: Only β-(D)-phenylalanine and (D)-3-amino-5-phenylpenantoic acid were substrates

COc1ccc([C@H](N)CC(=O)O)cc1 [p-methoxy-β-phenylalanine]
Peak consumption (later eluting peak) ([1]; cell lysate, 23 hours): 80%
